Experiment [1] concerns formation of ET-1 from Big-ET-1. In words: In vivo inhibition of the Big-ET-1-induced blood pressure increase in anaesthetised rats, i.v. single dose. Details: species or system Rats (Sprague-Dawley). As to conditions: Rattus norvegicus, iv, 10 μmol/kg, 5 min before 0.5 nmol/kg Big-ET-1, negative values indicate inhibition, read-out: % substance-related inhibition of the maximum Big-ET effect on SAP vs. control. The text has this:
3. In Vivo Investigation of the Inhibitory Action of the Substances on the Formation of ET-1 from Big-ET-1 in Rats
ET-1 is an endogenous substance with strong vasoconstrictive effect. An increase in the ET-1 level results in an increase in blood pressure. Upon infusion of Big-ET-1, an increase in blood pressure takes place to the extent that ET-1 is produced therefrom by enzyme-catalysed cleavage of Big-ET-1. As a measurement of the enzyme-inhibiting action of the substances, their inhibitory action on the increase in blood pressure induced by infusion of Big-ET-1 was determined.
Rats (Sprague-Dawley, CRLD=Charles River) were anaesthetised with 1 ml/kg Rompun/Ketavet 1:1. A pressure transducer (Statham) was inserted into the carotid artery to measure blood pressure. One jugular vein was cannulated for administering the substance, and the other for administering Big-ET-1. After a 20-minute equilibration phase, the rats were administered the corresponding test substance of Formula I at a dose of as a rule 10 μmol/kg (if not stated otherwise), or a vehicle. Five minutes later, 0.5 nmol/kg Big-ET-1 was infused over a period of one minute. The systolic (SAP=systolic arterial pressure) and the diastolic (DAP=diastolic arterial pressure) blood pressure and the heart rate were each measured before administration of the substance, then immediately before administration of Big-ET and in each case every five minutes over a period of 30 minutes after Big-ET administration using the pressure transducer in known manner. The maximum Big-ET-induced increase in blood pressure and the maximum lowering of heart rate were calculated from the measured values as the difference between the value measured at the moment of maximum development of the Big-ET action (typically after 5 min.) and the value measured before Big-ET infusion. Furthermore, the integral of the blood pressure curve under the influence of Big-ET-1 was determined over 30 minutes (AUC=area under the curve).
The percentage inhibition of the maximum Big-ET-1 effect on the systolic arterial blood pressure (SAP) after i.v. administration of the test substances compared with administration of a vehicle is set forth in the following Table 3a:
Data given in table 3a as negative values indicate an inhibitory effect.

Experiment [2] addresses T1, His6-tagged hSEP ectodomain (Homo sapiens, UniProt Q495T6).
T1 construct: His6-tagged hSEP ectodomain; His6; purchased Innogenetics, Ghent, Belgium
T1 sequence (Q495T6 49-779 limits assumed): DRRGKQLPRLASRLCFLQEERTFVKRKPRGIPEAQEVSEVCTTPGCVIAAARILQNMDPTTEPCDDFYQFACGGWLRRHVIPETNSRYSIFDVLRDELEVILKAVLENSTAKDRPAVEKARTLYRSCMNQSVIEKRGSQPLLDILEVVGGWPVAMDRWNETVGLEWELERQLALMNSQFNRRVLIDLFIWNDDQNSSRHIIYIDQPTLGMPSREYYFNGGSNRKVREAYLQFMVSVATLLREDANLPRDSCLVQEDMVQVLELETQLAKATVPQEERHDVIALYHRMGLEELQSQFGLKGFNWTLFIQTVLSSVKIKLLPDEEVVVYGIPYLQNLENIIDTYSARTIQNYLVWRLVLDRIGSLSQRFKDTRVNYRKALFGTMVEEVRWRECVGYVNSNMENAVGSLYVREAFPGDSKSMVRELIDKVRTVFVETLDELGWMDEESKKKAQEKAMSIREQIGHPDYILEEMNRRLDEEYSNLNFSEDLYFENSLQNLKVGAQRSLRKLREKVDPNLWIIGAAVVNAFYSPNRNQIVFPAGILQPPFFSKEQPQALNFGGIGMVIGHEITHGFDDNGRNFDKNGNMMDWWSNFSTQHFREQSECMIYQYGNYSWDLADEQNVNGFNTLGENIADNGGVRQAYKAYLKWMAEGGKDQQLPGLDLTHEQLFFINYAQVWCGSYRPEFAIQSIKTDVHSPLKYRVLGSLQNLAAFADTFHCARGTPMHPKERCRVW
Nature of the experiment: In vitro investigation of the hSEP-inhibitory action (fluorescence-quenched Big-ET-1 analogue, HPLC). The experiment is classed as biochemical. The protocol:
2. In Vitro Investigation of the hSEP-Inhibitory Action of the Substances
In this test, the measure of the inhibitory activity of the substances which was determined was their IC50 value. The IC50 value of a test substance having enzyme-inhibitory activity is that concentration of the test substance at which 50% of the enzymatic activity of the hSEP is blocked.
The test and the HPLC procedure were carried out analogously to the manner set forth above for determining the in vitro inhibitory action of the test substances on NEP. 10 nM phosphoramidon served as standard inhibitor in the HPLC procedure. In this test model the test substances of Formula I listed in the following Table 2 had the IC50 values given below: […]

The target in experiment [3] is T2, soluble, human recombinant NEP (Homo sapiens, UniProt P08473).
T2 construct: soluble, human recombinant NEP; purchased Prof; Crine, University of Montreal, Canada
Nature of the experiment: In-vitro investigation of the NEP inhibitory action (fluorescence-quenched Big-ET-1 analogue, HPLC). The experiment is classed as biochemical. How it is done: 1. In-Vitro Investigation of the NEP Inhibitory Action of the Substances
In this test, the measure of the inhibitory activity of the substances which was determined was their IC50 value. The IC50 value of a test substance having enzyme-inhibitory activity is that concentration of the test substance at which 50% of the enzymatic activity of the NEP is blocked.
70 μl test buffer, 10 μl enzyme working solution and 10 μl test substance solution were mixed in an Eppendorf vessel and preincubated at 37° C. for 15 minutes (=min.). Then 10 μl substrate stock solution was added and the test batch was incubated for 60 minutes at 37° C. The enzymatic reaction was then ended by 5-minutes' heating to 95° C. After centrifugation (Heraeus Biofuge B, 3 min.), the liquid supernatant was investigated by HPLC in accordance with the following specifications.
The substrate was separated from cleavage products by means of reversed-phase HPLC (CC 125/4 Nucleosil 300/5 C18 RP column with CC 8/4 Nucleosil 100/5 C18 precolumn, from Macherey-Nagel, Düren, Germany). For this, 60 μl of the test mixture was injected into the HPLC sample injection point and the column was then eluted at a flow rate of 1 ml/min with the following gradient:
Mobile Phase B: 100% acetonitrile+0.5M H3PO4
All the peptides were detected by absorption at 214 nm and by fluorescence with an excitation wavelength of 328 nm and an emission wavelength of 393 nm.
Upon enzymatic cleavage of the peptide, the fluorophore (=Mca) and the quencher end up in different peptide fragments, which reduces the effectiveness of the quench. […] The increasing fluorescence signal (corresponds to the area, A) of the HPLC peak of the peptide with the non-quenched Mca fluorophore is used for the further calculations. This signal was compared for samples with (=Ainhib) and without (=Acontrol) test substance of Formula I, and the value “% inhibition” was calculated on the basis of the respective peak areas according to the following formula: % inhibition=100*(1−Ainhib/Acontrol)
All the samples were measured in duplicates and average values were calculated therefrom. A standard inhibitor (10 nM thiorphan) and a solvent control (0.1% DMSO) were likewise measured as quality controls on each run. In this test model the test substances of Formula I listed in the following Table 1 had the IC50 values given below: […]

The structures appear in SMILES notation. Some results are limits rather than exact numbers.

T2 sequence (P08473 52-750 limits assumed): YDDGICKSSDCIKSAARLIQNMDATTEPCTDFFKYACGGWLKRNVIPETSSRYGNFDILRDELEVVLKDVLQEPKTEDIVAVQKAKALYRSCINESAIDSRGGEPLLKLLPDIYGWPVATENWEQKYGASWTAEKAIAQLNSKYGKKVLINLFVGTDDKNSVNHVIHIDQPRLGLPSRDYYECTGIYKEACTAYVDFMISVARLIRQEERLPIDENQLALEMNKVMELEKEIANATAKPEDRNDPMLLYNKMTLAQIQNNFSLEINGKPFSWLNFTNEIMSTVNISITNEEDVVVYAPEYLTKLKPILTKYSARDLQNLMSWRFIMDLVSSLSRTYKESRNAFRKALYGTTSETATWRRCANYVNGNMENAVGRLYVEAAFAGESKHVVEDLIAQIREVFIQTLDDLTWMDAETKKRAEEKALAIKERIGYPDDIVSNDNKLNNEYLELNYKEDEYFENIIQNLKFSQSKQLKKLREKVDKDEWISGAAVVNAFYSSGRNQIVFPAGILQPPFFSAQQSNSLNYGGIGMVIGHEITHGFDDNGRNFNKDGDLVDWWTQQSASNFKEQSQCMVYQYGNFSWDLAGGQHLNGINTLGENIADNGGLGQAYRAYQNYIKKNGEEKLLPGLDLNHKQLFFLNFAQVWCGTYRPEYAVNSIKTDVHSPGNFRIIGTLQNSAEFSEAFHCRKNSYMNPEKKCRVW

By IC50 is commonly meant the concentration that gives 50% inhibition. With `COc1ccc(CNC(=O)CC(CC2(C(=O)N[C@H]3CCc4ccccc4N(CC(=O)O)C3=O)CCCC2)C(=O)O)cc1` (mixture of isomers) [Example 24], the change in vivo at 10 µmol/kg in experiment [1] is -54%. Besides, the IC50 in experiment [2] turned out to be 27 nM; in experiment [3], 11.1 nM.
For `O=C(O)CN1C(=O)[C@@H](NC(=O)C2(CC(CC(=O)NC3CCCCNC3=O)C(=O)O)CCCC2)CCc2ccccc21` (mixture of isomers) [Example 17], in that order: -46%, 24 nM and below 1 nM.
For `CCN(CCCCN)C(=O)CC(CC1(C(=O)NC2CCc3ccccc3N(CC(=O)O)C2=O)CCCC1)C(=O)O` (racemic) [Example 76, 4-[(4-aminobutyl)(ethyl)amino]-2-{[1-({[1-(carboxymethyl)-2-oxo-2,3,4,5-tetrahydro-1H-1-benzazepin-3-yl]amino}carbonyl)cyclopentyl]methyl}-4-oxobutanoic acid], in that order: -93%, 4 nM and 10 nM.
In the same order, the values of `CN(C)CCN(C)C(=O)CC(CC1(C(=O)NC2CCc3ccccc3N(CC(=O)O)C2=O)CCCC1)C(=O)O` (centres unmarked) [Example 59, 2-{[1-({[1-(carboxymethyl)-2-oxo-2,3,4,5-tetrahydro-1H-1-benzazepin-3-yl]amino}carbonyl)cyclopentyl]methyl}-4-[[2-(dimethylamino)ethyl](methyl)amino]-4-oxobutanoic acid] are -98%, 4 nM and 12 nM.
As to `COc1ccc(C(=O)CNC(=O)CC(CC2(C(=O)N[C@H]3CCc4ccccc4N(CC(=O)O)C3=O)CCCC2)C(=O)O)cc1` (mixture of isomers) [Example 20], in experiment [1], the change in vivo at 10 µmol/kg is -67%. Moreover, the IC50 stood at 36.3 nM in experiment [2] and 12.9 nM in experiment [3].
In the same order, the values of `COCCNC(=O)CC(CC1(C(=O)N[C@H]2CCc3ccccc3N(CC(=O)O)C2=O)CCCC1)C(=O)O` (mixture of isomers) [Example 16] are -45%, 15 nM and 20 nM.
For `O=C(O)CN1C(=O)[C@@H](NC(=O)C2(CC(CC(=O)NCC3CC3)C(=O)O)CCCC2)CCc2ccccc21` (mixture of isomers) [Example 23], in that order: -40%, 17.3 nM and 10.6 nM.
In the case of `O=C(O)CN1C(=O)[C@@H](NC(=O)C2(CC(CC(=O)NCc3ccccc3)C(=O)O)CCCC2)CCc2ccccc21` (mixture of isomers) [Example 27], the IC50 in experiment [2] amounted to 26.8 nM; in experiment [3], 7.8 nM.

The values above are taken from patent publication US20080085889A1, “Amidomethyl-Substituted 1-(Carboxyalkyl) Cyclopentyl-Carbonylamino-Benzazepine-N-Acetic Acid Compounds, Process and Intermediate Products for Their Preparation and Pharmaceutical Compositions Containing Them” (SOLVAY PHARMACEUTICALS GmbH, priority 2003, published 2008).
